Measured values reported in US7968535B2, “Use of azapaullones for preventing and treating pancreatic autoimmune disorders” (Develogen Atkiengesellschaft, priority 2005, dated 2011).

Key:
INS-1E cells [1] = assay: Ins-1E cell proliferation assay (BrdU incorporation); type: cell-based, rat
Procedure: The proliferation rate of Ins-1E cells was determined by monitoring DNA synthesis using a 5-bromo-2′-deoxyuridine (BrdU) incorporation assay. BrdU is a halogenated nucleotide analogue of thymidine that is incorporated into DNA during the S-phase of the cell cycle. Pulse-labeling of DNA with BrdU and subsequent immunohistochemical detection of labeled nuclei was used to study the rate of cell proliferation. The treatment of INS-1E cells with 4-Azakenpaullone for 24 hours increases BrdU incorporation of Ins-1E cells in a concentration dependent manner, reaching a maximum of about 1.4 fold between 5 μM and 10 μM 4-AKP.
The proliferation of Ins-1E insulinoma cells was determined by monitoring DNA synthesis as an indirect parameter of cell proliferation. The incorporation of the thymidine analogue 5-bromo-2′-deoxyuridine (BrdU) during replication into cellular DNA was used to label the DNA of mitotically active cells. After its incorporation into DNA, BrdU was detected by immunoassay.
(§1) 10,000 Ins-1E cells were seeded per 96-well (black 96-well tissue culture plates, Falcon #353948) in 100 μl culture medium (RPMI 1640 containing 11 mM glucose, 5% FCS, 10 mM HEPES, 50 μM 2-mercaptoethanol, 1 mM MEM sodium pyruvate, 100 U/ml penicillin, 100 μg/ml streptomycin) and cultivated at 37° C., 5% CO2 in humidified atmosphere for 3 days. Media was changed to 100 μl starvation medium (culture medium with only 5 mM glucose, 1% FCS) and the cells were re-incubated for 1 day. Then media was exchanged to starvation medium containing test substances and the cells were further incubated for 24 h. For the last 4 hours BrdU was added to reach a concentration of 10 μM. Cell proliferation ELISA (Cell Proliferation ELISA, BrdU, chemiluminescence, Roche, cat. No. 1669915) was performed according to the manufacturers guidelines.

INS-1E cells [2] = assay: Glucolipotoxicity induced apoptosis of INS-1E cells (overall assessment); type: cell-based, rat; settings: palmitate and glucose, 24 hours
Procedure: (§2) The effects of the substance on cell viability, cell growth and specific apoptotic events such as caspases activity and DNA-fragmentation was monitored. INS-1E cell apoptosis was induced by treatment of cell cultures with toxic concentrations of glucose and palmitate for 24 hours. The substance of interest was added to the medium 1 hour prior to the addition of the toxic agents.
The effects of the test compounds on beta cell function were assessed using biological assays monitoring cellular metabolic activity as well as specific apoptotic events in Ins-1E cells.
as §1, with “substances.” for “substances and the cells were further incubated for 24 h. For the last 4 hours BrdU was added to reach a concentration of 10 μM. Cell proliferation ELISA (Cell Proliferation ELISA, BrdU, chemiluminescence, Roche, cat. No. 1669915) was performed according to the manufacturers guidelines.”
(§3) Apoptosis of Ins-1E cells was induced by addition of a combination of BSA coupled palmitate and glucose (pal/gluc) or a combination of cytokines (cyt) 1 hour after starting the treatment with test substances: pal/gluc: 0.3 mM palmitate:BSA (palmitic acid sodium salt:fatty acid free BSA 6:1) and 25 mM glucose. 10×cyt: 0.04 ng/ml IL-1β and 1 ng/ml IFNγ. The cells were further incubated with test substances and apoptotic inducer for 24 hours.

INS-1E cells [3] = assay: DNA-fragmentation ELISA in glucose/palmitate stressed cells; type: cell-based, rat; settings: glucose/palmitate 24 hours; for reduction of cytosolic DNA-fragments: 20 μM
Procedure: as §2
DNA-fragmentation is a comparatively late apoptotic event comprising storage of nucleosomal DNA-fragments as mono- and oligo nucleosomes in the cytoplasm. The incubation of INS1-E cells with high concentrations of glucose and palmitate for 24 hours leads to DNA breakdown and the accumulation of nucleosomal DNA fragments in the cytoplasm. The detectable amount of cytosolic nucleosomal DNA fragments was reduced by about 17%, when cells were treated with the apoptosis inducing agents in combination with 10 μM 4-AKP.
as §1, with “substances.” for “substances and the cells were further incubated for 24 h. For the last 4 hours BrdU was added to reach a concentration of 10 μM. Cell proliferation ELISA (Cell Proliferation ELISA, BrdU, chemiluminescence, Roche, cat. No. 1669915) was performed according to the manufacturers guidelines.”
as §3
DNA-fragmentation is a late apoptotic event comprising storage of nucleosomal DNA-fragments as mono- and oligo nucleosomes in the cytoplasm. Their concentration was determined by ELISA (Cell death detection ELISA, Roche, cat. No. 1774425) according to the manufacturers guidelines.

INS-1E cells [4] = assay: Caspase activity assay in glucose/palmitate stressed cells; type: cell-based, rat
Procedure: as §2
Caspase activation is a characteristic of early apoptotic cells. The experiment was carried out as described above with the exception that the caspases activity assay was applied instead of the DNA-fragmentation assay (see Example 3 for details).
as §1, with “substances.” for “substances and the cells were further incubated for 24 h. For the last 4 hours BrdU was added to reach a concentration of 10 μM. Cell proliferation ELISA (Cell Proliferation ELISA, BrdU, chemiluminescence, Roche, cat. No. 1669915) was performed according to the manufacturers guidelines.”
as §3
Caspase activity is a characteristic of early apoptotic cells. Their activity was quantified by an enzymatic assay (homogeneous caspases assay, Roche, cat. No. 03 005 372 001). Caspase activity was measured 3 hours after addition of caspases substrate according to the manufacturers guidelines.

human GSK3 = assay: IC50 Profiler Express kinase assay; type: biochemical; settings: 10-point curves in duplicate
Procedure: Experiments were carried out by Upstate Ltd. according to the protocols described in KinaseProfiler™ Assay Protocols, IC50 Profiler Express™ (10-point curves in duplicate) Fall 2004 by Ustate Cell Signaling solutions.

INS-1E cells [5] = assay: Cell number by CyQuant assay; type: cell-based, rat; settings: 24 hours
Procedure: as §2
as §1, with “substances. […]” for “substances and the cells were further incubated for 24 h. For the last 4 hours BrdU was added to reach a concentration of 10 μM. Cell proliferation ELISA (Cell Proliferation ELISA, BrdU, chemiluminescence, Roche, cat. No. 1669915) was performed according to the manufacturers guidelines.”
Cell number was measured by staining of cellular DNA with CyQuant dye (CyQuant Cell Proliferation Assay Kit, Molecular Probes, cat. No. C-7026) which becomes fluorescent when bound to DNA. […]

INS-1E cells [6] = assay: Viability by Alamar Blue reduction under glucose/palmitate; type: cell-based, rat; settings: 24 hours
Procedure: as §2
as §1, with “substances. […]” for “substances and the cells were further incubated for 24 h. For the last 4 hours BrdU was added to reach a concentration of 10 μM. Cell proliferation ELISA (Cell Proliferation ELISA, BrdU, chemiluminescence, Roche, cat. No. 1669915) was performed according to the manufacturers guidelines.”
Viability was assessed by mitochondric reduction of the non toxic dye Alamar Blue (Bioscource, cat. No. DAL1025). The dye was added to the cells 4 hours before read-out according to the manufacturers guidelines. Basal fluorescence was measured immediately to be subtracted from the fluorescence after 4 hours. […]

[7] = system: cyclin-dependent kinases (CDKs); assay: KinaseProfiler biochemical kinase activity assays
Procedure: (§4) Experiments were carried out by Upstate Ltd. according to the protocols described in KinaseProfiler™ Assay Protocols Fall 2004 by Ustate Cell Signaling solutions.
(§5) Compounds 10c and e are structurally very similar to 1-Azakenpaullone and differ only by one substituent at position 9 of the D ring from their template 1-Azakenpaullone. […] These kinases were selected among about 250 different kinases based on their structural or functional similarity to GSK3, e.g. all available members of the CDK family were included in the survey because CDKs are most similar to GSK3 and several kinase inhibitors are known that inhibit members of both families. The direct comparison of different compounds in such an experiment provides information on the relative selectivity of the respective compounds.

[8] = system: panel of 28 protein kinases; assay: KinaseProfiler biochemical kinase activity assays; settings: tested in parallel with 1-Azakenpaullone
Procedure: as §4, §5

SMILES: O=C1Cc2c([nH]c3ccc(C(F)(F)F)cc23)-c2ncccc2N1 [Compound 10l, 9-Trifluoromethyl-7,12-dihydropyrido[3′,2′:2,3]azepino[4,5-b]indol-6(5H)-one]
- BrdU incorporation relative to untreated controls (maximum) (INS-1E cells [1]; maximum between 1 μM and 5 μM): about 1.4 fold
- effect on glucolipotoxicity induced apoptosis (INS-1E cells [2]): significantly effects glucolipotoxicity induced apoptosis

SMILES: O=C1Cc2c([nH]c3ccc(O)cc23)-c2ncccc2N1 [Compound 10d, 9-Hydroxy-7,12-dihydropyrido[3′,2′:2,3]azepino[4,5-b]indole-6(5H)-one]
- reduction of cytosolic DNA-fragments (INS-1E cells [3]): 23%
- reduction of caspase activity (INS-1E cells [4]; 20 μM): 27%
- effect on glucolipotoxicity induced apoptosis (INS-1E cells [2]): slightly effects glucolipotoxicity induced apoptosis

SMILES: O=C1Cc2c([nH]c3ccc(Br)cc23)-c2ncccc2N1 [1-Azakenpaullone, reference compound]
- inhibition of human GSK3 (human GSK3): potent inhibitor

SMILES: O=C1Cc2c([nH]c3ccc(Br)cc23)-c2cccnc2N1 [4-Azakenpaullone, reference compound]
- BrdU incorporation relative to untreated controls (maximum) (INS-1E cells [1]; 24 hours, maximum between 5 μM and 10 μM): about 1.4 fold
- increase in cell-number relative to untreated controls (INS-1E cells [5]): 1.2 fold
- viability of Ins-1E cells subjected to apoptosis inducing concentrations of glucose and palmitate (INS-1E cells [6]): slightly improves the viability
- reduction of cytosolic nucleosomal DNA fragments (INS-1E cells [3]; 10 μM): about 17%
- reduction of caspase activity (INS-1E cells [4]; 10 μM): 18%
- effect on glucolipotoxicity induced apoptosis (INS-1E cells [2]): slightly antagonizes apoptotic processes

SMILES: COc1ccc2[nH]c3c(c2c1)CC(=O)Nc1cccnc1-3 [Compound 10a, 9-Methoxy-7,12-dihydro-pyrido[3′,2′:2,3]azepino[4,5-b]indole-6(5H)-one]
- proliferation of INS-1E cells (in words) (INS-1E cells [1]): small effect
- BrdU incorporation relative to untreated controls (maximum) (INS-1E cells [1]; at about 10 μM): about 1.2 fold
- reduction of cytosolic DNA-fragments (INS-1E cells [3]): 44%
- reduction of caspase activity (INS-1E cells [4]; 20 μM): 22%
- effect on glucolipotoxicity induced apoptosis (INS-1E cells [2]): moderately prevents glucolipotoxicity induced apoptosis

SMILES: O=C1Cc2c([nH]c3ccc(Cl)cc23)-c2ncccc2N1 [Compound 10e, 9-Chloro-7,12-dihydropyrido[3′,2′:2,3]azepino[4,5-b]indole-6(5H)-one]
- BrdU incorporation relative to untreated controls (maximum) (INS-1E cells [1]; maximum between 1 μM and 10 μM): about 1.7 fold
- reduction of cytosolic DNA-fragments (INS-1E cells [3]): 23%
- reduction of caspase activity (INS-1E cells [4]; 20 μM): 16%
- effect on glucolipotoxicity induced apoptosis (INS-1E cells [2]): slightly prevents glucolipotoxicity induced apoptosis
- inhibition of cyclin-dependent kinases (CDKs) [7]: significantly inhibits
- kinase selectivity / activity profile [8]: selective kinase inhibitors
